In patent US11925629B2, “Heterocyclic inhibitors of ERK1 and ERK2 and their use in the treatment of cancer” (Asana Biosciences, LLC, priority 2015, dated 2024):

Tests used:
[1] = tested on: phospho-RSK (the downstream target of ERK1/2); test: Pharmacodynamic assay, phospho-RSK in A375 tumor samples; format: in vivo, mice; conditions: Mus musculus, A-375; A375 tumor samples harvested at 1 h after dosing at 50 mg/kg PO, compared to vehicle control
Experimental: (§1) Foxn1 nu/nu strain of female mice (obtained from Charles River Laboratories, USA), 8-10 weeks of age, body weight range 23-25 g, were used for the tumor xenograft efficacy studies. Human cancer cell lines (such as melanoma A375, colorectal HT29, pancreatic BxPC3, colorectal HCT116, and lung A549) were first grown in vitro, and then about five million (5×10^6) of these cells in 100 μL of serum free medium were mixed with an equal amount of matrigel, and the entire mixture was injected subcutaneously at the right flank region of mice. The tumors were measured with Vernier calipers periodically after the first week of injection. When the tumor volume reached 120-150 mm^3 (about 3-4 weeks after injection) the animals were randomized into different groups so that their tumor volume was approximately the same in all groups.
For PO dosing, the compounds were prepared in a formulation containing 0.5% Methyl cellulose and 0.01% Tween 80. For IV, SC, or IP dosing, the compounds were prepared in 6% solutol-ethanol (1:1), 6% DMSO and 88% saline. Animals were dosed with compounds prepared in specific formulations via PO, IP or SC route either QD or BID at the required doses. Tumors size and body weights were measured twice or thrice in a week. Tumors were harvested at the end of the study after euthanizing the animals according to approved protocols. […]

[2] = tested on: phosphorylation of RSK1(S380) (the downstream target of ERK1/2); test: Phospho-RSK1(S380) ELISA assay in HT-29 cells; format: cell-based, human; conditions: Homo sapiens, HT-29, HT29 cells, phospho-RSK1(S380); read-out: Mechanistic Cell Assay RSK1 Phos HT29 IC50
Method in brief: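 IC50 values derive from a variable-slope sigmoidal fit of sandwich-ELISA signal (450 nm) for RSK1 Ser380 phosphorylation. The cells were B-RafV600E HT-29 colorectal line, exposed to serially diluted compound for 2 h after overnight seeding, then lysed at 4° C.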

[3] = tested on: human melanoma xenograft model (A375) harboring B-RAF V600E mutation; test: A375 human melanoma xenograft model, tumor growth inhibition; format: in vivo, mice; conditions: 50 mg/kg BID orally for 19 days
Experimental: as §1, with “When the tumor volume reached 120-150 mm^3 (about 3-4 weeks after injection) the animals were randomized into different groups so that their tumor volume was approximately the same in all groups.” left out
For PO dosing, the compounds were prepared in a formulation containing 0.5% Methyl cellulose and 0.01% Tween 80. […] Tumors size and body weights were measured twice or thrice in a week. […]
Changes in tumor volume (Δ volumes) for each treated (T) and control (C) group were calculated by subtracting the mean tumor volume on the first day of treatment (starting day) from the mean tumor volume on the specified observation day. […] Percentage tumor growth inhibition was calculated as [100−% T/C]. Percentage body weight change was calculated as [(Body weight on specified observation day−Body weight on starting day)/Body weight on starting day]×100. […]

[4] = tested on: HT-29 (colorectal carcinoma, B-RafV600E) cells; test: Cell proliferation (Alamar Blue) assay, HT-29; format: cell-based, human; conditions: Homo sapiens, HT-29, HT29 cells
Method in brief: (§2)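 After overnight plating (16-24 h), cells were treated for 72 h with compound dilutions spanning roughly 0.0005 to 10 uM. Proliferation was measured by Alamar Blue fluorescence and IC50 values derived from variable-slope dose-response curves.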

[5] = tested on: HCT116 (colorectal carcinoma, K Ras G13D) cells; test: Cell proliferation (Alamar Blue) assay, HCT116; format: cell-based, human; conditions: Homo sapiens, HCT-116, HCT116 cells
Method in brief: as §2

| IC50 [2] | IC50 [4] | IC50 [5] | Compound | inhibition at 50 mg/kg [1] | body weight loss [3] |
| --- | --- | --- | --- | --- | --- |
| – | – | – | Cc1cnc(NC2CCOCC2)nc1-n1cnc(C(=O)N[C@H](CO)c2cccc(Cl)c2)c1 [Example 211] | ~84% | – |
| ≤ 0.1 µM | ≤ 0.1 µM | ≤ 0.1 µM | Cc1cnc(N[C@H]2CCOC2)nc1-n1cnc(C(=O)N[C@H](CN)c2cccc(Cl)c2)c1 [Example 255, N-((S)-2-amino-1-(3-chlorophenyl)ethyl)-1-(5-methyl-2-(((S)-tetrahydrofuran-3-yl)amino)pyrimidin-4-yl)-1H-imidazole-4-carboxamide] | – | no significant body weight loss |
| – | – | – | Cc1cnc(NC2CCOCC2)nc1-n1cnc(C(=O)NC(CO)c2cccc(Cl)c2)c1 (stereo not drawn) [Example 201] | ~66% | – |
